The conditions of data set [1]: cited from earlier work.
The conditions of data set [2]: cited from earlier work. The source holds these as a separate data set.
Data set [3] can be described thus: Plasma pharmacokinetics after single subcutaneous dose in non-human primates (DcNP or free drug combination). The conditions noted are these: for half-life: monkey, sc. How it is done: To evaluate whether presenting the three drugs—e.g., DTG-3TC-TFV, LPV-RTV-TFV, EFV-LPV-TFV, ATZ-RTV-TFV or 4 drugs—e.g., LPV-RTV-3TC-TFV in a combination nanosuspension using DcNP platform could provide long-acting plasma and intracellular drug exposure, macaques were subcutaneously administered with either DcNP formulated or soluble free drug combination. The free-drug combination (control) arm consisted of two groups. In the control group, 2-4 macaques were administered at an indicated single subcutaneous dose where equivalent dug combinations are dissolved in DMSO and diluted with water.
Whole blood in EDTA tubes was immediately centrifuged and plasma was removed and frozen at −80° C. until LC-MS/MS analysis.
Plasma drug concentrations were reported in units of nM. Non-compartmental parameters were estimated from plasma profiles for free and DcNP formulations using Phoenix WinNonlin (Certara, Princeton, N.J.). The following non-compartmental parameters were estimated: area under the plasma concentration-time curve (AUC) extrapolated to infinity; terminal half-life (t1/2); apparent clearance (CL/F); and mean body residence time (MBRT) based on moments extrapolated to infinity.

The conditions of data set [4]: cited from earlier work. The source holds these as a separate data set.
The subject of another data set is HIV-1. The conditions noted are these: read-out: therapeutically effective plasma concentration (EC50); cited from earlier work.

pEC50: −log10 of the molar value. Like-named read-outs stand apart in the source and are kept apart here. Where only a bound is given, the exact number is not on record here.

Consider `C[C@@H]1CCO[C@H]2Cn3cc(C(=O)NCc4ccc(F)cc4F)c(=O)c(O)c3C(=O)N12` [Dolutegravir], for which, in data set [1] (oral), the “Oral single dose formulation (plasma half-life, hours)” value (“Oral single dose formulation” below) is 23 h. The “log P” value in data set [2] (listed as DTG) is listed as above 2. Also, in data set [3] (plasma), the half-life is above 400 h. For the same compound, the Water solubility in data set [4] is below 95 µg/mL. Besides, in the data set with HIV-1, the pEC50 was 8.67 to 10.70.
On to `O=C1Nc2ccc(Cl)cc2[C@@](C#CC2CC2)(C(F)(F)F)O1` [Efavirenz], for which the lipophilicity (log P) in data set [2] was 4. The Water solubility in data set [4] was 0.00855 µg/mL.
For the compound `Cc1cccc(C)c1OCC(=O)N[C@@H](Cc1ccccc1)[C@@H](O)C[C@H](Cc1ccccc1)NC(=O)[C@H](C(C)C)N1CCCNC1=O` [Lopinavir, (2S)—N-[(2S,4S,5S)-5-[[2-(2,6-dimethylphenoxy)acetyl]amino]-4-hydroxy-1,6-diphenylhexan-2-yl]-3-methyl-2-(2-oxo-1,3-diazinan-1-yl)butanamide], the “Oral single dose formulation” value in data set [1] (in vivo, po) was 2.5 h. Further, in data set [3] (in vivo), the half-life fell in the range of 250 to 350 h. The pEC50 in the data set with HIV-1 was 7.57 to 8.00.
Turning to `Cc1cc(/C=C/C#N)cc(C)c1Nc1ccnc(Nc2ccc(C#N)cc2)n1` [Rilpivirine, 4-[[4-[4-[(E)-2-cyanoethenyl]-2,6-dimethylanilino]pyrimidin-2-yl]amino]benzonitrile], the log partition coefficient (log P) in data set [2] was 4.5. The pEC50 in the data set on HIV-1 was 8.96 to 9.15.
As to `CC(C)c1nc(CN(C)C(=O)N[C@H](C(=O)N[C@@H](Cc2ccccc2)C[C@H](O)[C@H](Cc2ccccc2)NC(=O)OCc2cncs2)C(C)C)cs1` [Ritonavir, 1,3-thiazol-5-ylmethyl N-[(2S,3S,5S)-3-hydroxy-5-[[(2S)-3-methyl-2-[[methyl-[(2-propan-2-yl-1,3-thiazol-4-yl)methyl]carbamoyl]amino]butanoyl]amino]-1,6-diphenylhexan-2-yl]carbamate], in data set [1] (oral), the “Oral single dose formulation” value is 2.5 h. The half-life in data set [3] (plasma) fell in the range of 250 to 350 h. The pEC50 in the data set on HIV-1 is 6.82 to 8.42.
For `C[C@H](Cn1cnc2c(N)ncnc21)OCP(=O)(O)O` [Tenofovir, [(2˜{R})-1-(6-aminopurin-9-yl)propan-2-yl]oxymethylphosphonic acid], the “log P” value in data set [2] is reported as −1.6. Further, the Water solubility in data set [4] is 13000 µg/mL. In the data set on HIV-1, the pEC50 was 5.07 to 7.40.
For “[(2˜{R})-1-(6-aminopurin-9-yl)propan-2-yl]oxymethylphosphonic acid [Tenofovir]”, the “Oral single dose formulation” value in data set [1] (oral) is 8 to 17 h. Moreover, the “DcNP formulation (non-human primates) (plasma half-life, hours)” value in data set [3] (DcNP formulation, non-human primates) was above 200 to 350 h.

As a reminder, the log P is the decadic logarithm of the partition coefficient of the neutral form, usually between octanol and water. In general, half-life refers to the time in which the quantity being followed falls by half.

(Values after patent publication US20230270677A1, “LONG-ACTING THERAPEUTIC AGENT COMBINATIONS AND METHODS THEREOF” (University of Washington, priority 2020, published 2023).)
